Test results taken from patent US7098228B2, “Indolyl derivatives” (Hoffmann-La Roche Inc., priority 2002, dated 2006).

Tests used:
PPARα = biological target: T1, PPARα (Homo sapiens, UniProt Q07869); experiment: Luciferase transcriptional reporter gene assay, pFA-PPARα-LBD in BHK21 cells; assay type: cell-based
T1 construct: PPARα (aa 167 to 469); expressed in transfected cells; host or cells: BHK21 (ATCC CCL10)
T1 sequence (Q07869 167-468 limits assumed): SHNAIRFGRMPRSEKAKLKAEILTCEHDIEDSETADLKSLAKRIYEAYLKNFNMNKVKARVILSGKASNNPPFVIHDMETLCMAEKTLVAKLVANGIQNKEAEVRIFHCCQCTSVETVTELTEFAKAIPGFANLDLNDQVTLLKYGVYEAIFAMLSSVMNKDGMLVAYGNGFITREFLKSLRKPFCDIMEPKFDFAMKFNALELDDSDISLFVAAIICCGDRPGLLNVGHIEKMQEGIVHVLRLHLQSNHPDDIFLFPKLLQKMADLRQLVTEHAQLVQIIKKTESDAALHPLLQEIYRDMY
Source text: (§1) Full-length cDNA clones for human PPARα and mouse PPARγ were obtained by RT-PCR from human adipose and mouse liver cRNA, respectively, cloned into plasmid vectors and verified by DNA sequencing. […] To accomplish this, the portions of the cloned sequences encoding the LBDs were amplified from the full-length clones by PCR and then subcloned into the plasmid vectors. Final clones were verified by DNA sequence analysis.
(§2) Luciferase Transcriptional Reporter Gene Assays
(§3) Baby hamster kidney cells (BHK21 ATCC CCL10) were grown in DMEM medium containing 10% FBS at 37° C. in a 95% O2:5% CO2 atmosphere. Cells were seeded in 6 well plates at a density of 10^5 Cells/well and then batch-transfected with either the pFA-PPARγ-LBD or pFA-PPARα-LBD expression plasmids plus the pFR-luc reporter plasmid and an expression plasmid encoding the secretable form of alkaline phosphatase (SEAP) as a normalization control. […] Six hours following transfection, the cells were harvested by trypsinization and seeded in 96 well plates at a density of 10^4 cells/well. After 24 hours to allow attachment of cells, the medium was removed and replaced with 100 ul of phenol red-free medium containing the test substances or control ligands (final. 0.1% DMSO). Following incubation of the cells for 24 hours with substances, 50 ul of the supernatant was recovered and analyzed for SEAP activity (Roche Molecular Biochemicals). The remainder of the supernatant was discarded, 50 ul PBS was added per well followed by one volume of Luciferase Constant-Light Reagent (Roche Molecular Biochemicals) to lyse the cells and initiate the luciferase reaction. Luminescence for both SEAP and luciferase was measured in a Packard TopCount. Luciferase activity was normalized to the SEAP control and transcriptional activation in the presence of a test substance was expressed as fold-activation over cells incubated in the absence of the substance. EC50 values were calculated using the XLfit program (ID Business Solutions Ltd. UK).

PPARγ [1] = biological target: T2, PPARγ (Mus musculus, UniProt P37238); experiment: Luciferase transcriptional reporter gene assay, pFA-PPARγ-LBD in BHK21 cells; assay type: cell-based
T2 sequence (P37238 204-505): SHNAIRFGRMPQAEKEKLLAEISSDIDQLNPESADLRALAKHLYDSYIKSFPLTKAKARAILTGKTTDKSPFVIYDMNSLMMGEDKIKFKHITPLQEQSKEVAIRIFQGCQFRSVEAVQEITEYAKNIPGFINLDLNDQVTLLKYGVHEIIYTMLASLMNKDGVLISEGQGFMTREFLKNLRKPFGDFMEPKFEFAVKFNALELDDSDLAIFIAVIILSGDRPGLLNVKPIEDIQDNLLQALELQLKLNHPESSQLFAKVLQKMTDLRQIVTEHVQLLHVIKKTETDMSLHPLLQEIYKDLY
Source text: as §1, §2, §3

PPARγ [2] = biological target: T2, PPARγ; experiment: PPARγ radioligand binding assay (scintillation proximity, GST-PPARγ-LBD); parameters: made in house; host or cells: E. coli BL21 (pLysS)
Source text: as §1
Induction, expression, and purification of GST-LBD fusion proteins were performed in E. coli strain BL21 (pLysS) cells by standard methods (Ref: Current Protocols in Molecular Biology, Wiley Press, edited by Ausubel et al.).
Radioligand Binding Assay
PPARγ receptor binding was assayed in TKE50 (50 mM Tris-HCl, pH 8, 50 mM KCl, 2 mM EDTA, 0.1 mg/ml fatty acid-free BSA and 10 mM DTT). For each 96 well reaction an 140 ng equivalent of GST-PPARγ-LBD fusion protein was bound to 10 ug SPA beads (PharmaciaAmersham) in a final volume of 50 ul by shaking. The resulting slurry was incubated for 1 h at RT and centrifuged for 2 min at 1300 g. The supernatant containing unbound protein was removed and the semidry pellet containig the recptor-coated beads was resolved in 50 ul of TKE. For radioligand binding e.g. 10000 dpm 2(S)-(2-benzoyl-phenylamino)-3-{4-[1,1-ditritio-2-(5-methyl-2-phenyl-oxazol-4-yl) -ethoxy]-phenyl}-propionic acid in 50 ul were added, the reaction incubated at RT for 1 h and scintillation proximity counting performed. All binding assays were performed in 96 well plates and the amount of bound ligand measured on a Packard TopCount using OptiPlates (Packard). Nonspecific binding was determined in the presence of 10^−4 M unlabelled compound. Dose response curves were done in triplicates within a range of concentration from 10^−10 M to 10^−4 M.

Row | EC50 (PPARα) [nM] | EC50 (PPARγ [1]) [nM] | IC50 (PPARγ [2]) [nM] | Compound
1 | 8 | 7 | 68 | CCOC(Cc1cccc2c1ccn2Cc1nc(-c2cc(OC)cc(OC)c2)oc1C)C(=O)O (racemic) [Example 1, rac-3-{1-[2-(3,5-Dimethoxy-phenyl)-5-methyl-oxazol-4-ylmethyl]-1H-indol-4-yl}-2-ethoxy-propionic acid]
2 | 190 |  |  | CCOC(Cc1cccc2c1ccn2CCCc1nc(-c2ccccc2)oc1C)C(=O)O (racemic) [Example 3, rac-2-Ethoxy-3-{1-[3-(5-methyl-2-phenyl-oxazol-4-yl)-propyl]-1H-indol-4-yl}-propionic acid]
3 | 44 | 140 | 1400 | CCOC(Cc1cccc2c1ccn2Cc1nc(-c2ccc(C(F)(F)F)cc2)oc1C)C(=O)O (racemic) [Example 10, rac-2-Ethoxy-3-{1-[5-methyl-2-(4-trifluoromethyl-phenyl)-oxazol-4-ylmethyl]-1H-indol-4-yl}-propionic acid]
4 | 200 | 93 | 53 | CCOC(Cc1cccc2c1ccn2Cc1nc(-c2ccc(C(C)C)cc2)oc1C)C(=O)O (racemic) [Example 2, rac-2-Ethoxy-3-{1-[2-(4-isopropyl-phenyl)-5-methyl-oxazol-4-ylmethyl]-1H-indol-4-yl}-propionic acid]
